The text below walks through data of US11708357B2, “Crystal form of pyrrolidinyl urea derivative and application thereof” (ZHANGZHOU PIEN TZE HUANG PHARMACEUTICAL CO., LTD., priority 2020, dated 2023).

Series [1] concerns the target T1, CYP1A2 (Homo sapiens, UniProt P05177).
T1 construct: from tissue; host or cells: human liver microsomes
T1 sequence (P05177 1-516): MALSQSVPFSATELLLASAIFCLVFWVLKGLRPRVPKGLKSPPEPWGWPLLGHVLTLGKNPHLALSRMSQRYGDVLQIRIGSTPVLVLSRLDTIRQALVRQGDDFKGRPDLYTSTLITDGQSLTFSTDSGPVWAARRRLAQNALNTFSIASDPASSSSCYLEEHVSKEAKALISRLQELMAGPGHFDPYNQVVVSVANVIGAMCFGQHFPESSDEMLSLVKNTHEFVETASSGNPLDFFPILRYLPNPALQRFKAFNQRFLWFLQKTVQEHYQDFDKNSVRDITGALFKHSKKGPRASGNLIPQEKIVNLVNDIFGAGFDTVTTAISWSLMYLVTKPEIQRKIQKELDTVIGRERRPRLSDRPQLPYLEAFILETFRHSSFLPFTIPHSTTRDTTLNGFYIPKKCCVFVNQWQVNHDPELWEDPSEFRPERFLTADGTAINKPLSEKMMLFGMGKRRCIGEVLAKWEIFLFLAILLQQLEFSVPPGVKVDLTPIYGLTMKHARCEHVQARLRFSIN
Description: Cytochrome P450 isozyme inhibitory activity test, CYP1A2. The format is in vitro ADME. The note with it: liver microsomes; human liver microsome. The procedure: The inhibitory activities of the test compound on different subtypes of human cytochrome P450 isozymes were determined. The test compound, standard inhibitor (100× final concentration), and a mixed substrate working solution were prepared; the microsome frozen in −80° C. refrigerator was thawed. […]
Background: Liver microsomes are vesicles of endoplasmic reticulum, rich in cytochrome P450 enzymes.

Series [2] in a line: Plasma protein binding rate (PPB) test, human plasma. The format is in vitro ADME. The settings on record: 2 μM, dialysis 37° C. 4 hours. The procedure:
The protein binding rates of the test compound in the plasma of humans and SD rats were determined.
796 μL of blank plasma from humans and SD rats (plasma purchased from BioreclamationIVT) were taken, 4 μL of working solution of the test compound (400 μM) or warfarin working solution (400 μM) was added and the final concentration of the test compound or warfarin was 2 μM. The sample was mixed thoroughly. […] All samples were analyzed by LC/MS/MS after protein precipitation, and the plasma protein unbound rate, binding rate and recovery rate was calculated according to the following formula: % unbound rate=100*free compound concentration at the membrane buffer side/total compound concentration at the membrane plasma side, % protein binding rate=100−% unbound rate, % recovery rate=100*(free compound concentration at the membrane buffer side+total compound concentration at the membrane plasma side)/total compound concentration before dialysis.

Series [3] concerns the target T2, TrkA (Homo sapiens, UniProt P04629).
T2 construct: purchased Invitrogen PV4114
Description: TrkA enzyme activity test (HTRF). The format is biochemical. The settings on record: 0.5 nM TrkA kinase, 90 μM ATP, 23° C. 90 minutes. The procedure:
TK detection kit Cisbio-62TK0PEJ
50 mM Hepes (pH 7.5), 5 mM MgCl2 (magnesium chloride), 0.01 mM orthovanadate (sodium vanadate), 1% BSA (bovine serum albumin), 1 mM (dithiothreitol)
This experiment used Cisbio's homogeneous time-resolved fluorescence resonance energy transfer (HTRF® method) for activity test. In the test plate, the enzyme, biotin-labeled peptide substrate, ATP, and test compound were mixed, and incubated for reaction. After the reaction, ethylenediaminetetraacetic acid was added to terminate the reaction; at the same time, Eu-labeled antibody and streptavidin-labeled XL665 were added for reaction and detection. The data were expressed by the readings of the fluorescence signal at 665 nm and 620 nm, where a high ratio of 665 nm/620 nm indicated higher activity, and a low ratio of 665 nm/620 nm indicated inhibition of activity.
1. […]
2. […] 10 μL of stop solution containing 20 mM EDTA, 1.34 nM phosphorylated substrate antibody, and 100 nM streptavidin-labeled fluorescent molecule XL-665 was then added, incubated at 23° C. for 60 minutes; the signal was read with Envision;
3. The inhibition rate of the compound was calculated from the data read by the instrument, and the IC50 value was calculated using the mode 205 in XLFIT5 of IDBS.

pIC50: −log10 of the molar value.

For orientation: IC50 means the point on the concentration scale where inhibition reaches its midpoint. For orientation: pIC50 means −log10 of the IC50, conventionally taken in molar units. The low end stands for a large IC50, the high end for a small IC50.

T2 sequence (P04629 33-796): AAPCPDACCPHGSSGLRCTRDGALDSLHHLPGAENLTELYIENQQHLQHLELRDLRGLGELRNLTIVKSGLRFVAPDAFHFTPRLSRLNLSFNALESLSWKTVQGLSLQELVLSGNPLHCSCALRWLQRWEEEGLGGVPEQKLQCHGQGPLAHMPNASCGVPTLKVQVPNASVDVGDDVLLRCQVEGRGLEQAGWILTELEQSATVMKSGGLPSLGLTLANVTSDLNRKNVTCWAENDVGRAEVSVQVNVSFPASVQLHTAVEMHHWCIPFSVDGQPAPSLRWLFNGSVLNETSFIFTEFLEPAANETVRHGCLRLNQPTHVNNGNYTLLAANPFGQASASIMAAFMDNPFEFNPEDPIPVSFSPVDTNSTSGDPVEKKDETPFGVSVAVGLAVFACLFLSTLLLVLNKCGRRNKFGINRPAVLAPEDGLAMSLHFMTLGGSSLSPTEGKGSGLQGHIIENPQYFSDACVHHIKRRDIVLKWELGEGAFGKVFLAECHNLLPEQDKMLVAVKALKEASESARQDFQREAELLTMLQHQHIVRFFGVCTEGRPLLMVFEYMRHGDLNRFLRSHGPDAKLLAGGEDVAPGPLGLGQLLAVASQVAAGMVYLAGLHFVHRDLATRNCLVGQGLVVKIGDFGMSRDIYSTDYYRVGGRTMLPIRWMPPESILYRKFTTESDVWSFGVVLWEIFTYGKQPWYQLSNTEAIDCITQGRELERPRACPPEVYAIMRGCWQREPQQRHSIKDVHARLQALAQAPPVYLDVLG

`COCCN1C[C@@H](n2ccc(F)c2)[C@H](NC(=O)Nc2c(C)c(-c3cnc(C4(F)COC4)nc3)nn2-c2ccccc2)C1` [Compound of formula (I)]: in series [1], the IC50 at 10 min is greater than 50000 nM. Further, the “Plasma protein unbound rate, Human plasma” value in series [2] is on record as 13.2%. In series [3], this compound had a pIC50 of 9.25.
